The target of test [1] is His-His-(EK)-hsBCLXL(2-197)[N197C] (Homo sapiens (Human), UniProt Q07817, N197C). Put plainly: Fluorescence quenching assay. Type of test: binding. As to conditions: 1 nM Cy5-labelled protein, 400 nM PUMA peptide, 2 hours at 23° C.; KI determined from IC50. Put shortly:
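Ki values converted from IC50s, measured as fluorescence increase (Ex 620/Em 680 nm) after 2 h at 23° C. Compounds were titrated over 11 points against 1 nM Cy5-BCL-xL and 400 nM quencher-tagged PUMA peptide in pH 7.4 HEPES (10 mM), 150 mM NaCl, 0.05% Tween 20, 5% DMSO.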

The test system of another test is H146 cells. The test can be described thus: H146 cell viability using MTT assay. As to conditions: Homo sapiens, NCI-H146, 48 h exposure. Type of test: cell-based. The protocol: MTT colorimetric assay is based on the mitochondrial reduction of tetrazolium salt by living cells. The viable cell number is proportional to the production of formazan salts, which can be read spectrophotometrically at 540 nm.
MOLT-4 and H146 cells were purchased from ATCC and cultivated in RPMI 1640 supplemented with 10% heat inactivated fetal bovine serum, penicillin (100 IU/ml), streptomycin (100 μg/ml) and L-glutamine (2 mM). Cells were cultured at 37° C. in a humidified atmosphere containing 5% CO2. Cells were seeded in 96 microwell plates (150p per well) and exposed to the compounds for 48 h (3.16 fold serially diluted; 9 concentrations each, triplicates). At the end of incubation time, 15 μL of MTT solution (5 mg/ml) were added per well and the cells were incubated for another 4 h. Then, 100 μL of 10% Sodium Dodecyl Sulfate (SDS)/HCl 10 mM were added per well and the plate was incubated overnight, before measurement of optical density at 540 nm. IC50s were calculated using standard four-parametric curve fitting.

The subject of the next test is MOLT-4 cells. The test can be described thus: MOLT-4 cell viability using MTT assay. As to conditions: Homo sapiens, MOLT-4, 48 h, 48 h exposure. Type of test: cell-based. The protocol:
MTT colorimetric assay is based on the mitochondrial reduction of tetrazolium salt by living cells.
Cells were cultured at 37° C. in a humidified atmosphere containing 5% CO2. […] At the end of incubation time, 15 μL of MTT solution (5 mg/ml) were added per well and the cells were incubated for another 4 h. […] IC50s were calculated using standard four-parametric curve fitting.

Structures are written as SMILES. pIC50, pKi: −log10 of the molar value.

His-His-(EK)-hsBCLXL(2-197)[N197C], sequence (Q07817 2-197 N197C): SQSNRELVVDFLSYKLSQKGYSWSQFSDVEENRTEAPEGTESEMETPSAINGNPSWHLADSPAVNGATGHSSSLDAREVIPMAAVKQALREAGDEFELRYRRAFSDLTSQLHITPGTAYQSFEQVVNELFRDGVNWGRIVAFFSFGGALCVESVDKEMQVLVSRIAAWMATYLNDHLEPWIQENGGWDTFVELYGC

As to `Cc1c(Nc2nc3ccccc3s2)nnc2c1CCCN2c1nc(C(=O)O)c(CCCOc2ccc(OCCN(C)C)cc2)s1` [Example 44, 2-{3-[(1,3-Benzothiazol-2-yl)amino]-4-methyl-5H,6H,7H,8H-pyrido[2,3-c]pyridazin-8-yl}-5-(3-{4-[2-(dimethylamino)ethoxy]phenoxy}propyl)-1,3-thiazole-4-carboxylic acid], in test [1], the negative-log Ki (pKi) was 11.82. For the same compound, the pIC50 in the test on H146 cells was 7.97; with MOLT-4 cells, 8.39.

Take `Cc1c(Nc2nc3ccccc3s2)nnc2c1CCCN2c1nc(C(=O)O)c(CCCOc2ccc(C#CCN3C[C@@H]4[C@H](C3)C4(F)F)cc2F)s1` [Example 63, 2-[3-(1,3-Benzothiazol-2-ylamino)-4-methyl-6,7-dihydro-5H-pyrido[2,3-c]pyridazin-8-yl]-5-[3-[4-[3-[(1S,5R)-6,6-difluoro-3-azabicyclo[3.1.0]hexan-3-yl]prop-1-ynyl]-2-fluoro-phenoxy]propyl]thiazole-4-carboxylic acid]: the pKi in test [1] was 10.09. In the test with H146 cells, this compound gave a negative-log IC50 (pIC50) of 7.69.

Regarding `Cc1c(Nc2nc3ccccc3s2)nnc2c1CCCN2c1nc(C(=O)O)c(CCCOc2ccc(CCCN3CCN(C)CC3)cc2F)s1` [Example 68, 2-[3-(1,3-Benzothiazol-2-ylamino)-4-methyl-6,7-dihydro-5H-pyrido[2,3-c]pyridazin-8-yl]-5-[3-[2-fluoro-4-[3-(4-methylpiperazin-1-yl)propyl]phenoxy]propyl]thiazole-4-carboxylic acid], the pKi in test [1] is 11.42. The figures for the pIC50 with H146 cells and in the test on MOLT-4 cells were 7.98 and 8.54, respectively.

Turning to `CC(=O)N(C)CC#Cc1ccc(OCCCc2sc(N3CCCc4c3nnc(Nc3nc5ccccc5s3)c4C)nc2C(=O)O)c(F)c1` [Example 139, 5-[3-[4-[3-[acetyl(methyl)amino]prop-1-ynyl]-2-fluoro-phenoxy]propyl]-2-[3-(1,3-benzothiazol-2-ylamino)-4-methyl-6,7-dihydro-5H-pyrido[2,3-c]pyridazin-8-yl]thiazole-4-carboxylic acid], the pKi in test [1] was 10.70. Also, the pIC50 in the test on MOLT-4 cells was 9.00.

Turning to `CCN(CC)CC#Cc1ccc(OCCCc2sc(N3CCCc4c3nnc(Nc3nc5ccccc5s3)c4C)nc2C(=O)O)c(F)c1` [Example 85, 2-[3-(1,3-Benzothiazol-2-ylamino)-4-methyl-6,7-dihydro-5H-pyrido[2,3-c]pyridazin-8-yl]-5-[3-[4-[3-(diethylamino)prop-1-ynyl]-2-fluoro-phenoxy]propyl]thiazole-4-carboxylic acid], the pKi in test [1] is 10.36. The negative-log IC50 (pIC50) in the test with MOLT-4 cells was 9.38.

`Cc1c(Nc2nc3ccccc3s2)nnc2c1CCCN2c1nc(C(=O)O)c(CCCOc2ccc(C#CCN(CC[C@H](O)CO)CC[C@H](O)CO)cc2F)s1` [Example 125, 2-{3-[(1,3-benzothiazol-2-yl)amino]-4-methyl-6,7-dihydro-5H-pyrido[2,3-c]pyridazin-8-yl}-5-{3-[4-(3-{bis[(3S)-3,4-dihydroxybutyl]amino}prop-1-yn-1-yl)-2-fluorophenoxy]propyl}-1,3-thiazole-4-carboxylic acid]: the pKi in test [1] was 11.17. This compound gave a pIC50 in the test on MOLT-4 cells of 8.02.

Consider `CCN(C)CC#Cc1ccc(OCCCc2sc(N3CCCc4c3nnc(Nc3nc5ccccc5s3)c4C)nc2C(=O)O)c(F)c1` [Example 88, 2-[3-(1,3-Benzothiazol-2-ylamino)-4-methyl-6,7-dihydro-5H-pyrido[2,3-c]pyridazin-8-yl]-5-[3-[4-[3-[ethyl(methyl)amino]prop-1-ynyl]-2-fluoro-phenoxy]propyl]thiazole-4-carboxylic acid], for which the pKi in test [1] is 11.00. In the test on MOLT-4 cells, this compound showed a pIC50 of 9.74.

For the compound `Cc1c(Nc2nc3ccccc3s2)nnc2c1CCCN2c1nc(C(=O)O)c(CCCOc2ccc(CCCN3CCCC3)cc2F)s1` [Example 69, 2-[3-(1,3-Benzothiazol-2-ylamino)-4-methyl-6,7-dihydro-5H-pyrido[2,3-c]pyridazin-8-yl]-5-[3-[2-fluoro-4-(3-pyrrolidin-1-ylpropyl)phenoxy]propyl]thiazole-4-carboxylic acid], the pKi in test [1] is 11.43. For the same compound, in the test with MOLT-4 cells, the pIC50 is 8.39.

Regarding `Cc1c(Nc2nc3ccccc3s2)nnc2c1CCCN2c1nc(C(=O)O)c(CCCOc2ccc(C#CCN3C[C@@H](C)N[C@@H](C)C3)cc2F)s1` [Example 89, 2-[3-(1,3-Benzothiazol-2-ylamino)-4-methyl-6,7-dihydro-5H-pyrido[2,3-c]pyridazin-8-yl]-5-[3-[4-[3-[(3R,5S)-3,5-dimethylpiperazin-1-yl]prop-1-ynyl]-2-fluoro-phenoxy]propyl]thiazole-4-carboxylic acid], the pKi in test [1] is 11.55. In addition, the pIC50 in the test with MOLT-4 cells was 9.24.

`Cc1c(Nc2nc3ccccc3s2)nnc2c1CCCN2c1ccc(-c2cnn(CC34CC5(C)CC(C)(C3)CC(OCCN(C)CCCCO)(C5)C4)c2C)c(C(=O)O)n1` [Example 153, 6-[3-(1,3-benzothiazol-2-ylamino)-4-methyl-6,7-dihydro-5H-pyrido[2,3-c]pyridazin-8-yl]-3-[1-[[3-[2-[4-hydroxybutyl(methyl)amino]ethoxy]-5,7-dimethyl-1-adamantyl]methyl]-5-methyl-pyrazol-4-yl]pyridine-2-carboxylic acid]: in test [1], the pKi was 11.92. The compound also gave a pIC50 with MOLT-4 cells of 9.64.

Consider `Cc1c(Nc2nc3ccccc3s2)nnc2c1CCCN2c1nc(C(=O)O)c(CCCOc2ccc(C#CCNCCCO)cc2F)s1` [Example 147, 2-[3-(1,3-benzothiazol-2-ylamino)-4-methyl-6,7-dihydro-5H-pyrido[2,3-c]pyridazin-8-yl]-5-[3-[2-fluoro-4-[3-(3-hydroxypropylamino)prop-1-ynyl]phenoxy]propyl]thiazole-4-carboxylic acid], for which the pKi in test [1] is 11.34. Also, in the test on MOLT-4 cells, the pIC50 was 9.07.

With `Cc1c(Nc2nc3cccc(F)c3s2)nnc2c1CCCN2c1ccc(-c2cnn(CC34CC5(C)CC(C)(C3)CC(OCCN3CCCC3)(C5)C4)c2C)c(C(=O)O)n1` [Example 178, 3-[1-[[3,5-dimethyl-7-(2-pyrrolidin-1-ylethoxy)-1-adamantyl]methyl]-5-methyl-pyrazol-4-yl]-6-[3-[(7-fluoro-1,3-benzothiazol-2-yl)amino]-4-methyl-6,7-dihydro-5H-pyrido[2,3-c]pyridazin-8-yl]pyridine-2-carboxylic acid], in test [1], the pKi is 11.66. This compound also gave a pIC50 in the test on MOLT-4 cells of 9.19.

As to `Cc1c(Nc2nc3ccccc3s2)nnc2c1CCN2c1nc(C(=O)O)cs1` [Example 11, 2-{3-[(1,3-Benzothiazol-2-yl)amino]-4-methyl-5H,6H,7H-pyrrolo[2,3-c]pyridazin-7-yl}-1,3-thiazole-4-carboxylic acid], the pIC50 with H146 cells was 5.20; with MOLT-4 cells, 5.61.

Take `Cc1c(Nc2nc3ccccc3s2)nnc2c1CCCN2c1ccc(-c2cnn(CC34CC5(C)CC(C)(C3)CC(OCCN3CCN(C(C)C)CC3)(C5)C4)c2C)c(C(=O)O)n1` [Example 146, 6-[3-(1,3-benzothiazol-2-ylamino)-4-methyl-6,7-dihydro-5H-pyrido[2,3-c]pyridazin-8-yl]-3-[1-[[3-[2-(4-isopropylpiperazin-1-yl)ethoxy]-5,7-dimethyl-1-adamantyl]methyl]-5-methyl-pyrazol-4-yl]pyridine-2-carboxylic acid]: the pKi in test [1] is 11.49. In the test with MOLT-4 cells, the pIC50 is 9.61.

For the compound `Cc1c(Nc2nc3ccccc3s2)nnc2c1CCCN2c1nc(C(=O)O)c(CCCOc2ccc(CCCN3C[C@@H]4[C@H](C3)C4(F)F)cc2F)s1` [Example 72, 2-[3-(1,3-Benzothiazol-2-ylamino)-4-methyl-6,7-dihydro-5H-pyrido[2,3-c]pyridazin-8-yl]-5-[3-[4-[3-[(1R,5S)-6,6-difluoro-3-azabicyclo[3.1.0]hexan-3-yl]propyl]-2-fluoro-phenoxy]propyl]thiazole-4-carboxylic acid], in test [1], the pKi was 10.10. The same compound gave a pIC50 in the test on MOLT-4 cells of 7.86.

On to `Cc1c(Nc2nc3ccccc3s2)nnc2c1CCCN2c1ccc(-c2cnn(CC34CC5(C)CC(C)(CC(CCCN(C)C)(C5)C3)C4)c2C)c(C(=O)O)n1` [Example 167, 6-[3-(1,3-benzothiazol-2-ylamino)-4-methyl-6,7-dihydro-5H-pyrido[2,3-c]pyridazin-8-yl]-3-[1-[[3-[3-(dimethylamino)propyl]-5,7-dimethyl-1-adamantyl]methyl]-5-methyl-pyrazol-4-yl]pyridine-2-carboxylic acid], for which the negative-log Ki (pKi) in test [1] is 11.72. In the test on MOLT-4 cells, this compound showed a pIC50 of 10.27.

Regarding `CNC(C)(C)C#Cc1ccc(OCCCc2sc(N3CCCc4c3nnc(Nc3nc5ccccc5s3)c4C)nc2C(=O)O)c(F)c1` [Example 91, 2-[3-(1,3-Benzothiazol-2-ylamino)-4-methyl-6,7-dihydro-5H-pyrido[2,3-c]pyridazin-8-yl]-5-[3-[2-fluoro-4-[3-methyl-3-(methylamino)but-1-ynyl]phenoxy]propyl]thiazole-4-carboxylic acid], the pKi in test [1] is 11.24. Moreover, the negative-log IC50 (pIC50) in the test with MOLT-4 cells is 9.44.

The values are drawn from patent publication US12570648B2, “6,7-dihydro-5H-pyrido[2,3-c]pyridazine derivatives and related compounds as Bcl-xL protein inhibitors and pro-apoptotic agents for treating cancer” (LES LABORATOIRES SERVIER, priority 2019, dated 2026).
